How the values were obtained:
Experiment in all cases: Bacteriostasis, log reduction
Type in all cases: cell-based
[1] = test system: S. maltophilia (derived from ATCC ® 13637 ™); settings: S. maltophilia ATCC 13637
Experimental: (§1) In order to assess the log reduction capabilities of compounds of Formula (1), testing was performed on organisms that are found in acute and chronic wounds. Triplicate tubes were prepared for each bacteria using 50 μL of inoculum (about 1×10^6 CFU/mL) which was added to 450 μL of compound solution (compound of Formula (I)) (or 100 μL of inoculum in 900 μL of compound solution), resulting in a final inoculum of about 1×10^5 CFU/mL, as shown in Table 4.
(§2) Tubes were mixed with a vortex and then incubated in a shaking incubator at 175 RPM and 35° C. to 37° C.
(§3) Positive control in Tables 5a and 5b was 1 mL of 0.89% saline with 1 mL of the 1×10^6 CFU/mL of the organism.
(§4) For Compounds 1, 7, 8, 10, and 18 in Tables 6, 7-A, 7-B, 8, 9, 10-A, 10-B, and 11: The compound solutions were prepared with compound (30 mg), polysorbate 20 (1.6 mL), butylene glycol (1.6 mL), phosphatidyl choline (0.66 g), ethanol (1.6 mL), hydroxypropyl cellulose (0.26 g), and ultra pure water (24.9 mL).
(§5) XAV939 Control in Table X1 was XAV939 (30 mg), polysorbate 20 (1.6 mL), butylene glycol (1.6 mL), phosphatidyl choline (0.66 g), ethanol (1.6 mL), ultra pure water (24.9 mL), and hydroxypropyl cellulose (0.26 g).
(§6) GO-HA Control in Table X2 was GO-HA (30 mg), polysorbate 20 (1.6 mL), butylene glycol (1.6 mL), phosphatidyl choline (0.66 g), ethanol (1.6 mL), ultra pure water (24.9 mL), and hydroxypropyl cellulose (0.26 g).
(§7) For Compound 18+GO-HA in Tables 6 and X4: compound 18 (45 mg), GO-HA (45 mg), polysorbate 20 (2 mL), butylene glycol (2 mL), phosphotidyl choline (0.5 g), ethanol (2 mL), hydroxypropyl cellulose (0.40 g), and ultra pure water (40 mL).
(§8) For XAV939+GO-HA in Tables 6 and X3-A, and X3-B: XAV939 (45 mg), GO-HA (45 mg), butylene glycol (2 mL), polysorbate 20 (2 mL), phosphotidyl choline (0.5 g), ethanol (2 mL), hydroxypropyl cellulose (0.40 g), and ultra pure water (40 mL).
(§9) Testing was performed at two time points: 18 to 24 hours, and […].

[2] = test system: S. aureus (derived from ATCC ® 6538 ™); settings: S. aureus ATCC 6538
Experimental: as §1, §2, §3, §4, §5, §6, §7, §8, §9

[3] = test system: E. coli (derived from ATCC ® 25922 ™); settings: E. coli ATCC 25922
Experimental: as §1, §2, §3, §4, §5, §6, §7, §8, §9

[4] = test system: A. baumannii (derived from ATCC ® 19606 ™); settings: A. baumannii ATCC 19606
Experimental: as §1, §2, §3, §4, §5, §6, §7, §8, §9

[5] = test system: S. aureus (MRSA) (derived from ATCC ® 33593 ™); settings: for Average result / Log Reduction / Log Value: S. aureus (MRSA) ATCC 33593
Experimental: as §1, §2, §3, §4, §5, §6, §7, §8, §9

[6] = test system: E. faecalis (derived from ATCC ® 19433 ™); settings: E. faecalis ATCC 19433
Experimental: as §1, §2, §3, §4, §5, §6, §7, §8, §9

[7] = test system: P. aeruginosa (derived from ATCC ® 15442 ™); settings: P. aeruginosa ATCC 15442
Experimental: as §1, §2, §3, §4, §5, §6, §7, §8, §9

[8] = test system: S. epidermidis (derived from ATCC ® 14990 ™); settings: S. epidermidis ATCC 14990
Experimental: as §1, §2, §3, §4, §5, §6, §7, §8, §9

[9] = test system: E. coli 0157:H7 (derived from ATCC ® 12900 ™); settings: E. coli 0157:H7 ATCC 12900
Experimental: as §1, §2, §3, §4, §5, §6, §7, §8, §9

[10] = test system: K. pneumoniae (derived from ATCC ® 10031 ™); settings: K. pneumoniae ATCC 10031
Experimental: as §1, §2, §3, §4, §5, §6, §7, §8, §9

[11] = test system: S. pyogenes (derived from ATCC ® 19615 ™); settings: S. pyogenes ATCC 19615
Experimental: as §1, §2, §3, §4, §5, §6, §7, §8, §9

[12] = test system: E. coli (derived from ATCC ® 8739 ™); settings: E. coli ATCC 8739
Experimental: as §1, §2, §3, §4, §5, §6, §7, §8, §9

O=c1[nH]c(-c2ccc(B(O)O)cc2)nc2c1CSCC2 [Compound 1, (4-(4-oxo-3,5,7,8-tetrahydro-4H-thiopyrano[4,3-d]pyrimidin-2-yl)phenyl)boronic acid]
Average result ([1]; 24 h): <200
Log Reduction ([1]; 24 h): >2.8
Log Value ([1]; 24 h): <2.3
Average result ([1]; 72 h): <200
Log Reduction ([1]; 72 h): >2.8
Log Value ([1]; 72 h): <2.3
Average result ([2]; 24 h): 8.7 × 10^4
Log Reduction ([2]; 24 h): 0.4
Log Value ([2]; 24 h): 4.9
Average result ([2]; 72 h): <800
Log Reduction ([2]; 72 h): >2.4
Log Value ([2]; 72 h): <2.9
Average result ([3]; 24 h): <200
Log Reduction ([3]; 24 h): >3.1
Log Value ([3]; 24 h): <2.3
Average result ([3]; 72 h): <200
Log Reduction ([3]; 72 h): >3.1
Log Value ([3]; 72 h): <2.3
Average result ([4]; 24 h): <200
Log Reduction ([4]; 24 h): >3.0
Log Value ([4]; 24 h): <2.3
Average result ([4]; 72 h): <200
Log Reduction ([4]; 72 h): >3.0
Log Value ([4]; 72 h): <2.3
effect on MRSA growth ([5]; 72 h, test 1): did not affect MRSA growth
Average result ([5]; 24 h): 9.3 × 10^3
Log Reduction ([5]; 24 h): 0.6
Log Value ([5]; 24 h): 4.0
Average result ([5]; 72 h): 4.0 × 10^4
Log Reduction ([5]; 72 h): No
Log Value ([5]; 72 h): 4.6
Average result ([6]; 24 h): 1.1 × 10^3
Log Reduction ([6]; 24 h): 1.8
Log Value ([6]; 24 h): 3.0
Average result ([6]; 72 h): 1.1 × 10^4
Log Reduction ([6]; 72 h): 0.7
Log Value ([6]; 72 h): 4.1
Average result ([7]; 24 h): <200
Log Reduction ([7]; 24 h): >3.1
Log Value ([7]; 24 h): <2.3
Average result ([7]; 72 h): <200
Log Reduction ([7]; 72 h): >3.1
Log Value ([7]; 72 h): <2.3
Average result ([8]; 24 h): 3.1 × 10^5
Log Reduction ([8]; 24 h): No
Log Value ([8]; 24 h): 5.5
Average result ([8]; 72 h): <200
Log Reduction ([8]; 72 h): >2.5
Log Value ([8]; 72 h): <2.3
Average result ([9]; 24 h): 5.5 × 10^3
Log Reduction ([9]; 24 h): 0.5
Log Value ([9]; 24 h): 3.7
Average result ([9]; 72 h): <200
Log Reduction ([9]; 72 h): >1.9
Log Value ([9]; 72 h): <2.3
Average result ([10]; 24 h): 1.1 × 10^3
Log Reduction ([10]; 24 h): 1.8
Log Value ([10]; 24 h): 3.0
Average result ([10]; 72 h): <200
Log Reduction ([10]; 72 h): >2.5
Log Value ([10]; 72 h): <2.3
Average result ([11]; 24 h): <200
Log Reduction ([11]; 24 h): >3.2
Log Value ([11]; 24 h): <2.3
Average result ([11]; 72 h): <200
Log Reduction ([11]; 72 h): >3.2
Log Value ([11]; 72 h): <2.3
Average result ([12]; 24 h): 1.3 × 10^4
Log Reduction ([12]; 24 h): 1.2
Log Value ([12]; 24 h): 4.1
Average result ([12]; 72 h): <200
Log Reduction ([12]; 72 h): >3.0
Log Value ([12]; 72 h): <2.3

O=c1[nH]c(-c2ccc(-c3ccc(Br)nc3)cc2)nc2c1CSCC2 [Compound 7, 2-(4-(6-bromopyridin-3-yl)phenyl)-3,5,7,8-tetrahydro-4H-thiopyrano [4,3-d]pyrimidin-4-one]
Average result ([2]; 24 h): 7.3 × 10^2
Log Reduction ([2]; 24 h): 2.4
Log Value ([2]; 24 h): 2.9
Average result ([2]; 72 h): <200
Log Reduction ([2]; 72 h): >3.0
Log Value ([2]; 72 h): <2.3
Average result ([3]; 24 h): 3.2 × 10^5
Log Reduction ([3]; 24 h): No
Log Value ([3]; 24 h): 5.5
Average result ([3]; 72 h): 2.7 × 10^4
Log Reduction ([3]; 72 h): 1.0
Log Value ([3]; 72 h): 4.4
Average result ([5]; 24 h): 2.7 × 10^3
Log Reduction ([5]; 24 h): 1.2
Log Value ([5]; 24 h): 3.4
Average result ([5]; 72 h): 1.4 × 10^5
Log Reduction ([5]; 72 h): No
Log Value ([5]; 72 h): 5.1
Average result ([6]; 24 h): 9.3 × 10^5
Log Reduction ([6]; 24 h): No
Log Value ([6]; 24 h): 6.0
Average result ([6]; 72 h): 6.9 × 10^5
Log Reduction ([6]; 72 h): No
Log Value ([6]; 72 h): 5.8
Average result ([7]; 24 h): <200
Log Reduction ([7]; 24 h): >3.1
Log Value ([7]; 24 h): <2.3
Average result ([7]; 72 h): <200
Log Reduction ([7]; 72 h): >3.1
Log Value ([7]; 72 h): <2.3
Average result ([8]; 24 h): 2.8 × 10^4
Log Reduction ([8]; 24 h): 0.4
Log Value ([8]; 24 h): 4.4
Average result ([8]; 72 h): <200
Log Reduction ([8]; 72 h): >2.5
Log Value ([8]; 72 h): <2.3
Average result ([12]; 24 h): 7.9 × 10^4
Log Reduction ([12]; 24 h): 0.4
Log Value ([12]; 24 h): 4.9
Average result ([12]; 72 h): >3.6 × 10^6
Log Reduction ([12]; 72 h): No
Log Value ([12]; 72 h): >6.6

CC(C)(OCCO)c1ccc(-c2nc3c(c(=O)[nH]2)CSCC3)cc1 [Compound 8, 2-(4-(2-(2-hydroxyethoxy)propan-2-yl)phenyl)-3,5,7,8-tetrahydro-4H-thiopyrano[4,3-d]pyrimidin-4-one]
Average result ([2]; 24 h): 5.4 × 10^4
Log Reduction ([2]; 24 h): 0.6
Log Value ([2]; 24 h): 4.7
Average result ([2]; 72 h): <7.4 × 10^3
Log Reduction ([2]; 72 h): >1.4
Log Value ([2]; 72 h): <3.9
Average result ([3]; 24 h): 200
Log Reduction ([3]; 24 h): 3.1
Log Value ([3]; 24 h): 2.3
Average result ([3]; 72 h): <200
Log Reduction ([3]; 72 h): >3.1
Log Value ([3]; 72 h): <2.3
Average result ([5]; 24 h): 3.3 × 10^6
Log Reduction ([5]; 24 h): No
Log Value ([5]; 24 h): 6.5
Average result ([5]; 72 h): 1.0 × 10^6
Log Reduction ([5]; 72 h): No
Log Value ([5]; 72 h): 6.0
Average result ([6]; 24 h): 3.4 × 10^5
Log Reduction ([6]; 24 h): No
Log Value ([6]; 24 h): 5.5
Average result ([6]; 72 h): 6.5 × 10^4
Log Reduction ([6]; 72 h): No
Log Value ([6]; 72 h): 4.8
Average result ([7]; 24 h): 7.3 × 10^2
Log Reduction ([7]; 24 h): 2.5
Log Value ([7]; 24 h): 2.9
Average result ([7]; 72 h): <200
Log Reduction ([7]; 72 h): >3.1
Log Value ([7]; 72 h): <2.3
Average result ([8]; 24 h): 6.0 × 10^2
Log Reduction ([8]; 24 h): 2.0
Log Value ([8]; 24 h): 2.8
Average result ([8]; 72 h): <200
Log Reduction ([8]; 72 h): >2.5
Log Value ([8]; 72 h): <2.3
Average result ([12]; 24 h): 3.1 × 10^3
Log Reduction ([12]; 24 h): 1.8
Log Value ([12]; 24 h): 3.5
Average result ([12]; 72 h): 6.8 × 10^4
Log Reduction ([12]; 72 h): 0.5
Log Value ([12]; 72 h): 4.8

Reference: US20260356860A1, “2-SUBSTITUTED 3,4A,5,7,8,8A-HEXAHYDRO-4H-THIOPYRANO[4,3-DJPYRIMIDIN-4-ONES FOR WOUND TREATMENT” (priority 2022, published 2026)
